According to US8802663B2, “Pyrazole oxadiazole derivatives as S1P1 agonists” (Merck Serono SA, priority 2009, dated 2014):
Counter-ions that a name gives are not always drawn.

Each compound was assayed against S1P1 (Homo sapiens (Human), UniProt P21453) (assay: 35S-GTPγS binding, membranes from CHO cells expressing S1P1). Settings: CHO cell membranes.
Assay type: biochemical
Procedure: Cells were suspended in 50 mM TRIS, pH 7.4, 2 mM EDTA, 250 mM Sucrose (buffer A) and 1× Complete protease inhibitor cocktail (Roche), and disrupted at 4° C. by N2 decompression using a cell disruption bomb (Parr Instrument). Following centrifugation at 1000 RPM for 10 min at 4° C., the supernatant was suspended in buffer A and centrifuged again at 19000 RPM for 60 min at 4° C. The pellet was then suspended in 10 mM HEPES, pH 7.4, 1 mM EDTA, 250 mM Sucrose (Buffer B), and 1× Complete EDTA-free protease inhibitor cocktail and homogenized using a potter. Membranes were flash frozen in liquid N2 and stored at −80° C. [33P]sphingosine 1-phosphate (3000 Ci/mmol; American Radiolabeled Chemicals, Inc.) was added to test compounds in DMSO. […] Specific binding was calculated by subtracting remaining radioactivity in the presence of 1000-fold excess of unlabeled SIP. Binding data were analyzed using the GraphPad Prism program.
After 60 min incubation at 30° C. on a shaker, plates were centrifuged for 10 min at 2000 RPM. […] Triplicate samples were averaged and expressed as % response relative to S1P activation in absence of compound (n=2).

Sequence of S1P1 (P21453 whole entry, species assumed): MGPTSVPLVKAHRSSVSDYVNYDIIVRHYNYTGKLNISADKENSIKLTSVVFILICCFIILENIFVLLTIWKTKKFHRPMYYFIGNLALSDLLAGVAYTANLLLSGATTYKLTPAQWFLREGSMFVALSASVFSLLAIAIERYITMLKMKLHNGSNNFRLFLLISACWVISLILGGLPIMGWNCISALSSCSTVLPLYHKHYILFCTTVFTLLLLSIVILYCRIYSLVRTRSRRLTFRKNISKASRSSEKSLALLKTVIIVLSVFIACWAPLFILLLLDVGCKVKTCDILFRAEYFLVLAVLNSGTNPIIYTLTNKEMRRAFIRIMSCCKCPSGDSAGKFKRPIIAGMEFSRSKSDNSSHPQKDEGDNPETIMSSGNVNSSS

Compared with `CS(=O)(=O)c1cccc(-c2nc(-c3cnn(C4CCCCC4)c3-c3ccccc3)no2)c1` [Example 58, 3-(1-cyclohexyl-5-phenyl-1H-pyrazol-4-yl)-5-[3-(methylsulfonyl)phenyl]-1,2,4-oxadiazole], `FC(F)(F)c1cccc(-c2nc(-c3cnn(C4CCCCC4)c3-c3ccccc3)no2)c1` [Example 59, 3-(1-cyclohexyl-5-phenyl-1H-pyrazol-4-yl)-5-[3-(trifluoromethyl)phenyl]-1,2,4-oxadiazole] is 2.1-fold higher in EC50: 157 nM for the first, 335 nM for the second.

`Cc1c(-c2nc(-c3cc(F)ccc3F)no2)cnn1-c1ccccc1F` [Example 60, 3-(2,5-difluorophenyl)-5-[1-(2-fluorophenyl)-5-methyl-1H-pyrazol-4-yl]-1,2,4-oxadiazole] and `Cc1nn(C2CCCCC2)cc1-c1nc(-c2cc(F)ccc2F)no1` [Example 83, 5-(1-cyclohexyl-3-methyl-1H-pyrazol-4-yl)-3-(2,5-difluorophenyl)-1,2,4-oxadiazole] are within 1.5-fold of each other in EC50: 320 nM for the first, 313 nM for the second.

Compared with `CN(CC(=O)O)Cc1ccc(-c2noc(-c3cnn(C4CCCCC4)c3-c3ccncc3)n2)cc1` [Example 61, N-{4-[5-(1-cyclohexyl-5-pyridin-4-yl-1H-pyrazol-4-yl)-1,2,4-oxadiazol-3-yl]benzyl}-N-methylglycine], `O=C(O)CCNCc1ccc(-c2noc(-c3cnn(C4CCCCC4)c3-c3ccncc3)n2)cc1` [Example 65, N-{4-[5-(1-cyclohexyl-5-pyridin-4-yl-1H-pyrazol-4-yl)-1,2,4-oxadiazol-3-yl]benzyl}-beta-alanine] is 22-fold lower in EC50: 22 nM for the first, 1 nM for the second.

Going from `OC1CN(Cc2ccc(-c3noc(-c4cnn(C5CCCCC5)c4-c4ccncc4)n3)cc2)C1` [Example 62, 1-{4-[5-(1-cyclohexyl-5-pyridin-4-yl-1H-pyrazol-4-yl)-1,2,4-oxadiazol-3-yl]benzyl}azetidin-3-ol] to `c1cc(-c2c(-c3nc(-c4ccc(CN5CCC5)cc4)no3)cnn2C2CCCCC2)ccn1` [Example 66, 4-(4-{3-[4-(azetidin-1-ylmethyl)phenyl]-1,2,4-oxadiazol-5-yl}-1-cyclohexyl-1H-pyrazol-5-yl)pyridine], the EC50 rises from 3 nM to 13 nM (4.3-fold).

First: CC(C)Cn1ncc(-c2nc(-c3ccc(CO)cc3)no2)c1C1CCOCC1 [Example 63]
Second: OCc1ccc(-c2noc(-c3cnn(C4CCCCC4)c3C3CCOCC3)n2)cc1 [Example 70, (4-{5-[1-cyclohexyl-5-(tetrahydro-2H-pyran-4-yl)-1H-pyrazol-4-yl]-1,2,4-oxadiazol-3-yl}phenyl)methanol]
The EC50 of the first is 5.2-fold higher: 428 nM for the first, 82 nM for the second.

First: COCc1c(-c2nc(-c3ccc(CN4CCC(C(=O)O)CC4)cc3)no2)cnn1C1CCCCC1 [Example 64, 1-(4-{5-[1-cyclohexyl-5-(methoxymethyl)-1H-pyrazol-4-yl]-1,2,4-oxadiazol-3-yl}benzyl)piperidine-4-carboxylic acid]
Second: COCc1c(-c2nc(-c3ccc(CN4CC(C(=O)O)C4)cc3)no2)cnn1C1CCCCC1 [Example 68, 1-(4-{5-[1-cyclohexyl-5-(methoxymethyl)-1H-pyrazol-4-yl]-1,2,4-oxadiazol-3-yl}benzyl)azetidine-3-carboxylic acid]
The EC50 of the first is 330-fold higher: 99 nM for the first, 0.3 nM for the second. The second is the more potent here.

Compared with `COCc1c(-c2nc(-c3ccc(CNCCC(=O)O)cc3)no2)cnn1C1CCCCC1` [Example 67, N-(4-{5-[1-cyclohexyl-5-(methoxymethyl)-1H-pyrazol-4-yl]-1,2,4-oxadiazol-3-yl}benzyl)-beta-alanine], `COCc1c(-c2nc(-c3ccc(CN(C)CC(=O)O)cc3)no2)cnn1C1CCCCC1` [Example 72, N-(4-{5-[1-cyclohexyl-5-(methoxymethyl)-1H-pyrazol-4-yl]-1,2,4-oxadiazol-3-yl}benzyl)-N-methylglycine] is 85-fold higher in EC50: 1.4 nM for the first, 119 nM for the second. The first is the more potent here.

Compared with `COCc1c(-c2nc(-c3ccc(CO)cc3)no2)cnn1CC(C)C` [Example 69, (4-{5-[1-isobutyl-5-(methoxymethyl)-1H-pyrazol-4-yl]-1,2,4-oxadiazol-3-yl}phenyl)methanol], `COCc1c(-c2nc(-c3ccc(CNCCC(=O)O)cc3)no2)cnn1CC(C)C` [Example 84, 3-(4-(5-(1-isobutyl-5-(methoxymethyl)-1H-pyrazol-4-yl)-1,2,4-oxadiazol-3-yl)benzylamino)propanoic acid] is 1.5-fold lower in EC50: 437 nM for the first, 288 nM for the second.

Going from `O=C(O)C1CCN(Cc2ccc(-c3noc(-c4cnn(C5CCCCC5)c4-c4ccncc4)n3)cc2)CC1` [Example 71, 1-{4-[5-(1-cyclohexyl-5-pyridin-4-yl-1H-pyrazol-4-yl)-1,2,4-oxadiazol-3-yl]benzyl}piperidine-4-carboxylic acid] to `COCCNCc1ccc(-c2noc(-c3cnn(C4CCCCC4)c3-c3ccncc3)n2)cc1` [Example 78, N-(4-(5-(1-cyclohexyl-5-(pyridin-4-yl)-1H-pyrazol-4-yl)-1,2,4-oxadiazol-3-yl)benzyl)-2-methoxyethanamine], the EC50 rises from 6 nM to 67 nM (11-fold). The first is the more potent here.

Compared with `COCc1c(-c2nc(-c3ccc(CN4CC(O)C4)cc3)no2)cnn1C1CCCCC1` [Example 73, 1-(4-{5-[1-cyclohexyl-5-(methoxymethyl)-1H-pyrazol-4-yl]-1,2,4-oxadiazol-3-yl}benzyl)azetidin-3-ol], `COCc1c(-c2nc(-c3ccc(CN4CCC(O)C4)cc3)no2)cnn1C1CCCCC1` (stereo not drawn) [Example 74, 1-(4-{5-[1-cyclohexyl-5-(methoxymethyl)-1H-pyrazol-4-yl]-1,2,4-oxadiazol-3-yl}benzyl)pyrrolidin-3-ol] is 2.9-fold higher in EC50: 30 nM for the first, 86 nM for the second.

First: COCc1c(-c2nc(-c3ccc(CN(C)C)cc3)no2)cnn1C1CCCCC1 [Example 75, 1-(4-{5-[1-cyclohexyl-5-(methoxymethyl)-1H-pyrazol-4-yl]-1,2,4-oxadiazol-3-yl}phenyl)-N,N-dimethylmethanamine]
Second: COCc1c(-c2nc(-c3ccc(CN4CC(C(=O)O)C4)cc3)no2)cnn1CC(C)C [Example 76, 1-(4-{5-[1-isobutyl-5-(methoxymethyl)-1H-pyrazol-4-yl]-1,2,4-oxadiazol-3-yl}benzyl)azetidine-3-carboxylic acid]
The EC50 of the first is 2.7-fold higher: 63 nM for the first, 23 nM for the second. The second is the more potent here.

First: CC(C)Cn1ncc(-c2nc(-c3ccc(CN(C)CC(=O)O)cc3)no2)c1-c1ccncc1 [Example 77, N-{4-[5-(1-isobutyl-5-pyridin-4-yl-1H-pyrazol-4-yl)-1,2,4-oxadiazol-3-yl]benzyl}-N-methylglycine]
Second: CC(C)Cn1ncc(-c2nc(-c3ccc(CN(C)C)cc3)no2)c1-c1ccncc1 [Example 81, 1-(4-(5-(1-isobutyl-5-(pyridin-4-yl)-1H-pyrazol-4-yl)-1,2,4-oxadiazol-3-yl)phenyl)-N,N-dimethylmethanamine, formate]
The EC50 of the first is 4.3-fold higher: 837 nM for the first, 195 nM for the second. The second is the more potent here.

Compared with `CC(C)Cn1ncc(-c2nc(-c3ccc(CN4CCC(O)C4)cc3)no2)c1-c1ccncc1` (stereo not drawn) [Example 80, 1-(4-(5-(1-isobutyl-5-(pyridin-4-yl)-1H-pyrazol-4-yl)-1,2,4-oxadiazol-3-yl)benzyl)pyrrolidin-3-ol, formate], `CC(C)Cn1ncc(-c2nc(-c3ccc(CN4CC(O)C4)cc3)no2)c1-c1ccncc1` [Example 82, 1-(4-(5-(1-isobutyl-5-(pyridin-4-yl)-1H-pyrazol-4-yl)-1,2,4-oxadiazol-3-yl)benzyl)azetidin-3-ol, formate] is 1.6-fold lower in EC50: 252 nM for the first, 156 nM for the second. The second is the more potent here.

Compound `CNCc1ccc(-c2noc(-c3cnn(CC(C)C)c3-c3ccncc3)n2)cc1` [Example 85, 1-(4-(5-(1-isobutyl-5-(pyridin-4-yl)-1H-pyrazol-4-yl)-1,2,4-oxadiazol-3-yl)phenyl)-N-methylmethanamine] has an EC50 of 179 nM.
